The target in one data set is human integrin αvβ5 (Homo sapiens, UniProt P06756+P18084). Briefly: Evaluation of integrin binding property (surface plasmon resonance, Biacore 3000, immobilized cyclic peptide). Conditions: peptide immobilized on CM5 sensor chip; human integrin αvβ5 30-1,000 nM, 25° C., HEPES buffer with 5 mM magnesium chloride; read-out: Integrin binding property (dissociation constant). Put shortly: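 Cyclic peptides amine-coupled to a CM5 chip via EDC/NHS, with a blank reference channel; integrin injected 10 min at 25 °C at 30, 100, 300 and 1,000 nM in HEPES pH 7.4, 150 mM NaCl, 5 mM MgCl2, then 30 min buffer flow, EDTA regeneration. Kd from reference-subtracted responses, graded by category.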
A general note: SPR reads the build-up and loss of mass on a sensor chip optically.

Data set [1] in a line: Evaluation of molecule stability (alkali treatment, LC/MS residual rate). The following applies: 500 μM peptide plus equivalent of 1 M sodium hydroxide, 15° C., 20 minutes, LC/MS peak area. The format is physicochemical. In a few lines:
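Cyclic peptide at 500 μM in water treated with an equivalent of 1 M NaOH for 20 minutes at 15° C. Residual rate is the total LC/MS peak area after treatment relative to that before treatment, set as 100%. Analysis on a C18 column at 45° C with ammonium formate pH 3 eluents and ESI detection.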

SMILES strings stand for the structures. pKd: −log10 of the molar value. Numbered stars: 1 amine (or outer) side, 2 acyl side, 3 side chain; on linkers, the order of the positions; unused ones are H or OH. Bridge positions count the residues as written; N and C are the ends. Square brackets hold non-standard residues; d marks the D form. Peptide text beside a SMILES is read from it. hCys = N[C@@H](CCS)C(=O)O; Orn = NCCC[C@H](N)C(=O)O; X1 = O=C(C[*:1])[*:2]; X2 = O=C(C[*:2])[*:1] Where only a bound is given, the exact number is not on record here.

Sequence of human integrin αvβ5 (P06756 31-889 limits assumed): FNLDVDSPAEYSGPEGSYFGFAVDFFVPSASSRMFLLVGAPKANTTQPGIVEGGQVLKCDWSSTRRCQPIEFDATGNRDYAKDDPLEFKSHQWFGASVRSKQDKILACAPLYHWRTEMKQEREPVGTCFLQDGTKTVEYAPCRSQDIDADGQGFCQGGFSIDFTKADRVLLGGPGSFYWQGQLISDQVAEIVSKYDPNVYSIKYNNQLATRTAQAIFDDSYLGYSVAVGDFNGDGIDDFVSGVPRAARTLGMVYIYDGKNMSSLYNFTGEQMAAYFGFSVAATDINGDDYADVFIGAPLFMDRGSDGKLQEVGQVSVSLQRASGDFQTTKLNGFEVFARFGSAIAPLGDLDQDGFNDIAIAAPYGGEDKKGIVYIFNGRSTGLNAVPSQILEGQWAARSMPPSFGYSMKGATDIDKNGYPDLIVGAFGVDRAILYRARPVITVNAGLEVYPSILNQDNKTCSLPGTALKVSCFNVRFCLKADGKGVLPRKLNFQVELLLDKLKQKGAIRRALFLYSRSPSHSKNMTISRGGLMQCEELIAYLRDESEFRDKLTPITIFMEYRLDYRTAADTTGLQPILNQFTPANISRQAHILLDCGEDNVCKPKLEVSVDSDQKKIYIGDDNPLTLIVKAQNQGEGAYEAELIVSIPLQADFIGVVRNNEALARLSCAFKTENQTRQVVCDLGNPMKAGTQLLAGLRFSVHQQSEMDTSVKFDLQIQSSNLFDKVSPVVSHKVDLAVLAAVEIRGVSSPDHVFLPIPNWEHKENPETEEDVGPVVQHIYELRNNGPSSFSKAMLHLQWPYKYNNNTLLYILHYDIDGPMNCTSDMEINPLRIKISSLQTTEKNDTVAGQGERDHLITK
Sequence of human integrin αvβ5 (P06756 891-1048 partner limits assumed): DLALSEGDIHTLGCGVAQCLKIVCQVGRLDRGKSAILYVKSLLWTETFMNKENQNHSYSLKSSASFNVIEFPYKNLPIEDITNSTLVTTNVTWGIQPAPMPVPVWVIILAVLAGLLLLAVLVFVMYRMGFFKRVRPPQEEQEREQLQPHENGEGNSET
Sequence of human integrin αvβ5 (P18084 24-799): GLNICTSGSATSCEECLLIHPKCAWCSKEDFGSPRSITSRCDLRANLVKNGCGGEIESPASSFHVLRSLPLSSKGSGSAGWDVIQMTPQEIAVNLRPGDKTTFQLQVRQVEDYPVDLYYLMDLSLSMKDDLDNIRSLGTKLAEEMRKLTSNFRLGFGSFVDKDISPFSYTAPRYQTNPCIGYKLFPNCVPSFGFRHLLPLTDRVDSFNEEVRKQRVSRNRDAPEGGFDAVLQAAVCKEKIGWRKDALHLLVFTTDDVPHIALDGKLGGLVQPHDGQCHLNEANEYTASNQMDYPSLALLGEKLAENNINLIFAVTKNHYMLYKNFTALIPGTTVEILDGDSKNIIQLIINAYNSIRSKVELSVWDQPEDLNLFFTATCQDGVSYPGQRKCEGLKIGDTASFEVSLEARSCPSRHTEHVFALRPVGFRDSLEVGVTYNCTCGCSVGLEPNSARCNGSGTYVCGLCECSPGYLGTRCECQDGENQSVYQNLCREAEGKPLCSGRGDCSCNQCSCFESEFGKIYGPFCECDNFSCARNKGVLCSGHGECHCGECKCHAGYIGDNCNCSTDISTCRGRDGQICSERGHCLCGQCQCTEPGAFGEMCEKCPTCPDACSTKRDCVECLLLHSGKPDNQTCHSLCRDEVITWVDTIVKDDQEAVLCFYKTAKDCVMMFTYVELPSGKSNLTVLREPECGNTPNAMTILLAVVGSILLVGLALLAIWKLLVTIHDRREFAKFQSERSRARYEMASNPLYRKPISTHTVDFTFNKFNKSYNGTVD

For `CC[C@H](C)[C@@H]1NC(=O)CSCC[C@@H](C(=O)N[C@@H](CCCCN)C(=O)N[C@@H](CCCCN)C(=O)N[C@@H](CCCCN)C(=O)O)NC(=O)[C@H](CCCNC(=N)N)NC(=O)[C@H](Cc2ccccc2)NC(=O)[C@@H]2CCCCNC(=O)CSCC[C@H](NC1=O)C(=O)N[C@@H](CCCNC(=N)N)C(=O)NCC(=O)N[C@@H](CC(=O)O)C(=O)N2` [Cyclic peptide 33] ({CH2CO}-I[hCys]RGDKFR[hCys]KKK-OH; linker 2-6 via X1; thioether N-9), the pKd on human integrin αvβ5 was 6.70 to 7.00. Further, the “Molecule stability (cyclic peptide residual rate)” value in data set [1] was “A (The residual rate of the cyclic peptide is 70% or more.)”.

For `CC[C@H](C)[C@@H]1NC(=O)CSCC[C@@H](C(=O)N[C@@H](CCCCN)C(=O)N[C@@H](CCCCN)C(=O)N[C@@H](CCCCN)C(=O)O)NC(=O)[C@H](C)NC(=O)[C@H](Cc2ccccc2)NC(=O)[C@@H]2CCCCNC(=O)CSCC[C@H](NC1=O)C(=O)N[C@@H](CCCNC(=N)N)C(=O)NCC(=O)N[C@@H](CC(=O)O)C(=O)N2` [Cyclic peptide 34] ({CH2CO}-I[hCys]RGDKFA[hCys]KKK-OH; linker 2-6 via X1; thioether N-9), the pKd on human integrin αvβ5 was 7.00 to 7.30. Moreover, the “Molecule stability (cyclic peptide residual rate)” value in data set [1] is given as “A (The residual rate of the cyclic peptide is 70% or more.)”.

`CC[C@H](C)[C@@H]1NC(=O)CSCC[C@@H](C(=O)N[C@@H](C)C(=O)N[C@@H](CCCCN)C(=O)N[C@@H](CCCCN)C(=O)N[C@@H](CCCCN)C(=O)O)NC(=O)[C@H](Cc2ccccc2)NC(=O)[C@@H]2CCCCNC(=O)CSCC[C@H](NC1=O)C(=O)N[C@@H](CCCNC(=N)N)C(=O)NCC(=O)N[C@@H](CC(=O)O)C(=O)N2` [Cyclic peptide 35] ({CH2CO}-I[hCys]RGDKF[hCys]AKKK-OH; linker 2-6 via X1; thioether N-8): on human integrin αvβ5, the pKd was > 7.30. The “Molecule stability (cyclic peptide residual rate)” value in data set [1] is given as “A (The residual rate of the cyclic peptide is 70% or more.)”.

As for `C[C@H](N)C(=O)N[C@H]1CCSCC(=O)NCCCC[C@@H](C(=O)N[C@@H](CCCCN)C(=O)N[C@@H](CCCCN)C(=O)N[C@@H](CCCCN)C(=O)O)NC(=O)[C@H](Cc2ccccc2)NC(=O)[C@@H]2CCCCNC(=O)CSCC[C@H](NC1=O)C(=O)N[C@@H](CCCNC(=N)N)C(=O)NCC(=O)N[C@@H](CC(=O)O)C(=O)N2` [Cyclic peptide 36] (H-A[hCys][hCys]RGDKFKKKK-OH; linker 2-9, 3-7 via X1), the pKd on human integrin αvβ5 was 7.00 to 7.30. Further, the “Molecule stability (cyclic peptide residual rate)” value in data set [1] was “A (The residual rate of the cyclic peptide is 70% or more.)”.

In the case of `C[C@H](NC(=O)[C@@H]1CCCCNC(=O)CSCC[C@H](NC(=O)[C@H](CCCCN)NC(=O)[C@H](CCCCN)NC(=O)[C@@H](N)CCCCN)C(=O)N[C@H]2CCSCC(=O)NCCCC[C@H](NC(=O)[C@H](CC(=O)O)NC(=O)CNC(=O)[C@H](CCCNC(=N)N)NC2=O)C(=O)N[C@@H](Cc2ccccc2)C(=O)N1)C(=O)O` [Cyclic peptide 37] (H-KKK[hCys][hCys]RGDKFKA-OH; linker 4-11, 5-9 via X1), the pKd on human integrin αvβ5 is 7.00 to 7.30. In addition, in data set [1], the “Molecule stability (cyclic peptide residual rate)” value is recorded as “A (The residual rate of the cyclic peptide is 70% or more.)”.

Regarding `CC(C)[C@@H]1NC(=O)CSCC[C@@H](C(=O)N[C@@H](CCCCN)C(=O)N[C@@H](CCCCN)C(=O)N[C@@H](CCCCN)C(=O)O)NC(=O)[C@H](Cc2ccccc2)NC(=O)[C@@H]2CCSCC(=O)NCCC[C@H](NC1=O)C(=O)N[C@@H](CCCNC(=N)N)C(=O)NCC(=O)N[C@@H](CC(=O)O)C(=O)N2` [Cyclic peptide 38] ({CH2CO}-V[Orn]RGD[hCys]F[hCys]KKK-OH; linker 2-6 via X2; thioether N-8), the pKd on human integrin αvβ5 is > 7.30. The “Molecule stability (cyclic peptide residual rate)” value in data set [1] was “A (The residual rate of the cyclic peptide is 70% or more.)”.

The values above are taken from US12624067B2, “Cyclic peptide, cell scaffold material, cell separating material, and medium” (FUJIFILM Corporation, priority 2019, dated 2026).
